What is called Kd is the free concentration of one partner at which half of the binding sites on the other are occupied at equilibrium, for simple one-to-one binding. Low readings indicate tighter binding, high ones weaker binding.

The results in this text go back to publication PMC9034974, “Physicochemical characterization of the recombinant lectin scytovirin and microbicidal activity of the SD1 domain produced in rice against HIV-1” (Plant Cell Reports, 2022).

Type in all cases: binding
Test [1] deals with T1, SD1 (structural domain 1 of scytovirin) (Scytonema varium, UniProt P86041).
T1 construct: isolated N-terminal domain SD1 (residues 1-48), recombinant from E. coli, purified
T1 sequence (P86041 1-48): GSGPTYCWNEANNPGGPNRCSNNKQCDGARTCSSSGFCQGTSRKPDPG
Briefly: differential scanning calorimetry. The following applies: 10 mM sodium phosphate pH 7.4, 3 mM sodium azide; 20 µM protein, 60 °C/h; shift is a decrease (destabilization). A general note: Differential scanning calorimetry records heat flow against a reference as temperature is scanned.

The target of test [2] is T2, scytovirin (SVN) (Scytonema varium, UniProt P86041).
T2 sequence (P86041 1-95): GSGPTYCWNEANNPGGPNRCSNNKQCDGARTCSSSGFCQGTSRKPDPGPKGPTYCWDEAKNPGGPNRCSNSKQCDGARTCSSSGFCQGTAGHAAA
Description: isothermal titration calorimetry. As to conditions: 10 mM sodium phosphate pH 7.4, 3 mM sodium azide, 30 °C; one set of identical sites. The text has this:
isothermal titration calorimetry on scytovirin (SVN)

The target of test [3] is T2, scytovirin (SVN). Briefly: differential scanning calorimetry. As to conditions: 10 mM sodium phosphate pH 7.4, 3 mM sodium azide; 20 µM protein, 60 °C/h; Tm of the complex, not a shift; free SVN in the 2nd table, row 3. The source says: differential scanning calorimetry on scytovirin (SVN)

In the case of tetramannoside, the ΔTm in test [1] was ~ 11.5 °C. This substance gave a dissociation constant (Kd) in test [2] of 17.8 ± 2.75 µM.
Regarding nonamannoside, in test [2], the Kd turned out to be 3.99 ± 0.93 µM. The “Tm °C” value in test [3] is 56.50 ± 0.05 °C.
